Experimental data taken from patent US5811441A, “Isoxazoline fibrinogen receptor antagonists” (The DuPont Merck Pharmaceutical Company, priority 1997, dated 1998).
pIC50: −log10 of the molar value. Counter-ions that a name gives are not always drawn.

Tested on: platelet aggregation (platelet rich plasma (PRP))
Test: Platelet Aggregation Assay (no esterase), platelet rich plasma
Assay type: cell-based
Conditions: human platelet rich plasma (PRP), concentration inhibiting platelet aggregation by 50% relative to control
Experimental: Platelet Aggregation Assay:
venous blood was obtained from the arm of a healthy human donor who was drug-free and aspirin-free for at least two weeks prior to blood collection. Blood was collected into 10 mL citrated Vacutainer tubes. The blood was centrifuged for 15 minutes at 150×g at room temperature, and platelet-rich plasma (PRP) was removed. The remaining blood was centrifuged for 15 minutes at 1500×g at room temperature, and platelet-poor plasma (PPP) was removed. Samples were assayed on a aggregometer (PAP-4 Platelet Aggregation Profiler), using PPP as the blank (100% transmittance). […] of PRP was added to each micro test tube, and transmittance was set to 0%. 20 μL of various agonists (ADP, collagen, arachidonate, epinephrine, thrombin) were added to each tube, and the aggregation profiles were plotted (% transmittance versus time). The results are expressed as % inhibition of agonist-induced platelet aggregation. For the IC50 evaluation, the test compounds were added at various concentrations prior to the activation of the platelets.
Table A below sets forth the antiplatelet activity of representative compounds of the present invention. The indicated compounds were tested for their ability to inhibit platelet aggregation (using platelet rich plasma (PRP)). The IC50 value (the concentration of antagonist which inhibits platelet aggregation by 50% relative to a control lacking the antagonist) is shown. In Table A the IC50 values are expressed as: +++=IC50 of <1 μM; ++=IC50 of 1-50 μM; +=IC50 of 50-100 μM (μM=micromolar).

| SMILES | pIC50 |
| --- | --- |
| Cc1noc(C)c1S(=O)(=O)N[C@@H](CNC(=O)CC1CC(c2ccc(C(=N)N)cc2)=NO1)C(=O)O (stereo partly drawn) [N^2-(3,5-dimethylisoxazole-4-sulfonyl)-N^3-[3-(4-amidinophenyl)isoxazolin-5(R,S)-ylacetyl]-(S)-2,3-diaminopropionateTrifluoroacetate Salt] | > 6.00 |
| Cc1noc(C)c1S(=O)(=O)N[C@@H](CNC(=O)C[C@H]1CC(c2ccc(C(=N)N)cc2)=NO1)C(=O)O [N^2-(3,5-dimethylisoxazole-4-sulfonyl)-N^3-[3-(4-amidinophenyl)isoxazolin-5(R)-ylacetyl]-(S)-2,3-diaminopropionate Trifluoroacetate Salt] | > 6.00 |
| Cc1noc(C)c1S(=O)(=O)N[C@@H](CNC(=O)C[C@@H]1CC(c2ccc(C(=N)N)cc2)=NO1)C(=O)O [N^2-(3,5-Dimethylisoxazole-4-sulfonyl)-N^3-[3-(4-amidinophenyl)isoxazolin-5(S)-ylacetyl]-(S)-2,3-diamino-propionate Trifluoroacetate Salt] | > 6.00 |
